Key:
Type in all cases: in vivo
[1] = tested on: common cutworm (Spodoptera Litura); assay: Insecticidal effect on common cutworm (Test Example 2); conditions: 500 ppm, 25° C.; for Insecticidal effect on common cutworm (Test Example 2), judged grade / Insecticidal effect (Test Example 2), judged from mortality: cabbage leaf dip; for Insecticidal effect on common cutworm (Test Example 2), judged grade: second-instar larvae; for Insecticidal effect on common cutworm (Test Example 2), judged grade / Insecticidal effect, Test Example 2: eight days after inoculation; for Insecticidal effect, Test Example 2: cabbage leaf immersed; for Insecticidal effect (Test Example 2), judged from mortality: 8 days after inoculation
Method in brief: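 Mortality was scored 8 days post-inoculation, using three groups of 10 second-instar larvae kept at 25 °C in closed 9 cm dishes on air-dried treated material. The insecticidal effect was graded from calculated mortality by a set criterion.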

[2] = tested on: rice leafroller (Cnaphalocrocis medinalis); assay: Insecticidal effect on rice leafroller (Test Example 3); conditions: 500 ppm, 25° C., humidity 70%; for Insecticidal effect on rice leafroller (Test Example 3), judged grade / Insecticidal effect (Test Example 3), judged from mortality: rice lamina dip; for Insecticidal effect on rice leafroller (Test Example 3), judged grade: third-instar larvae; for Insecticidal effect on rice leafroller (Test Example 3), judged grade / Insecticidal effect, Test Example 3: four days after inoculation; for Insecticidal effect, Test Example 3: rice lamina immersed; for Insecticidal effect (Test Example 3), judged from mortality: 4 days after inoculation
Method in brief: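 Groups of 10 third-instar larvae, in triplicate, are placed on air-dried lamina resting on wet filter paper. Incubation runs four days at 25° C with 70% humidity before survivors and dead are tallied.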

[3] = tested on: diamondback moth (Plutella xylostella); assay: Insecticidal effect on diamondback moth (Test Example 1); conditions: for Insecticidal effect on diamondback moth (Test Example 1), judged grade: mortality judged according to the criterion shown in Test Example 1; for Insecticidal effect, Test Example 1 / Insecticidal effect (Test Example 1), judged from mortality: diamondback moth; for Insecticidal effect (Test Example 1), judged from mortality: judged by the criterion of Test Example 1
Method in brief: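 Chinese cabbage seedlings carrying eggs laid by released adult moths were immersed in treatment, air-dried and held at 25° C. Hatched insects were counted six days after immersion, and mortality was calculated and scored against a fixed criterion. Three replicate groups of 10 insects were used.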

[4] = second-instar larvae of common cutworm
[5] = third-instar larvae of rice leafroller
[6] = judged by the mortality criterion of Test Example 1
[7] = common cutworm second-instar larvae
[8] = rice leafroller third-instar larvae
[9] = mortality judged by criterion of Test Example 1

## CC(C)NC(=O)c1c(F)cccc1C(=O)Nc1ccc(SC(F)(F)C(F)(F)Br)cc1 [compound 480]
[1]
  Insecticidal effect on common cutworm (Test Example 2), judged grade: B (99-90)
[2]
  Insecticidal effect on rice leafroller (Test Example 3), judged grade: A (100)
[3]
  Insecticidal effect on diamondback moth (Test Example 1), judged grade: A (100)

## CC(C)NC(=O)c1cccc(F)c1C(=O)Nc1ccc(C(F)(F)F)cc1Cl [compound 550]
[1]
  Insecticidal effect on common cutworm (Test Example 2), judged grade: C (89-80)
[2]
  Insecticidal effect on rice leafroller (Test Example 3), judged grade: A (100)
[3]
  Insecticidal effect on diamondback moth (Test Example 1), judged grade: A (100)

## Cc1cc(OC(F)(F)F)ccc1NC(=O)c1cccc(Cl)c1C(=O)NC(C)C [compound 139]
[1]; [4]
  Insecticidal effect, Test Example 2: A (100)
[2]; [5]
  Insecticidal effect, Test Example 3: A (100)
[3]; [6]
  Insecticidal effect, Test Example 1: A (100)

## Cc1cc(C(F)(F)C(F)(F)F)ccc1NC(=O)c1cccc(Cl)c1C(=O)NC(C)(C)Cc1ccccc1 [compound 1418]
[1]; [7]
  Insecticidal effect, Test Example 2: A (100)
[2]; [8]
  Insecticidal effect, Test Example 3: A (100)
[3]; [9]
  Insecticidal effect, Test Example 1: A (100)

## CC(C)(C)NC(=O)c1c(I)cccc1C(=O)Nc1ccc2oc(-c3ccc(C(F)(F)F)cc3)nc2c1 [compound 1174]
[1]; [7]
  Insecticidal effect, Test Example 2: A (100)
[2]; [8]
  Insecticidal effect, Test Example 3: A (100)
[3]; [9]
  Insecticidal effect, Test Example 1: A (100)

## Cc1cc(C(F)(F)C(F)(F)F)ccc1NC(=O)c1cccc(C(F)(F)F)c1C(=O)NC(C)(C)C [compound 1231]
[1]; [7]
  Insecticidal effect, Test Example 2: A (100)
[2]; [8]
  Insecticidal effect, Test Example 3: A (100)
[3]; [9]
  Insecticidal effect, Test Example 1: A (100)

## Cc1cc(OC(F)F)ccc1NC(=O)c1ccc(I)cc1C(=O)NC(C)C [compound 1204]
[1]; [7]
  Insecticidal effect, Test Example 2: A (100)
[2]; [8]
  Insecticidal effect, Test Example 3: A (100)
[3]; [9]
  Insecticidal effect, Test Example 1: A (100)

## Cc1ccc(Cl)cc1NC(=O)c1cccc([N+](=O)[O-])c1C(N)=O [compound 1]
[1]; [4]
  Insecticidal effect, Test Example 2: D (79-50)
[2]; [5]
  Insecticidal effect, Test Example 3: A (100)
[3]; [6]
  Insecticidal effect, Test Example 1: D (79-50)

## Cc1cc(C(F)(F)C(F)(F)F)ccc1NC(=O)c1cccc(Cl)c1C(=O)NC(C)CBr (stereo not drawn) [compound 1652]
[1]; [4]
  Insecticidal effect (Test Example 2), judged from mortality: A (100)
[2]; [5]
  Insecticidal effect (Test Example 3), judged from mortality: A (100)
[3]
  Insecticidal effect (Test Example 1), judged from mortality: A (100)

## CC(C)(C)NC(=O)c1cccc(Cl)c1C(=O)Nc1ccc(C(F)(F)F)cc1 [compound 935]
[1]
  Insecticidal effect on common cutworm (Test Example 2), judged grade: A (100)
[2]
  Insecticidal effect on rice leafroller (Test Example 3), judged grade: A (100)
[3]
  Insecticidal effect on diamondback moth (Test Example 1), judged grade: A (100)

## Cc1c(NC(=O)c2cccc(F)c2C(=O)NC(C)C)cccc1OC(F)F [compound 499]
[1]
  Insecticidal effect on common cutworm (Test Example 2), judged grade: A (100)
[2]
  Insecticidal effect on rice leafroller (Test Example 3), judged grade: A (100)
[3]
  Insecticidal effect on diamondback moth (Test Example 1), judged grade: A (100)

## Cc1cc(OC(F)F)ccc1NC(=O)c1cccc(I)c1C(=O)NC1CC1 [compound 1452]
[1]; [4]
  Insecticidal effect (Test Example 2), judged from mortality: A (100)
[2]; [5]
  Insecticidal effect (Test Example 3), judged from mortality: A (100)
[3]
  Insecticidal effect (Test Example 1), judged from mortality: A (100)

## CC(C)NC(=O)c1c(I)cccc1C(=O)Nc1ccc(F)c(F)c1 [compound 360]
[1]; [4]
  Insecticidal effect, Test Example 2: D (79-50)
[2]; [5]
  Insecticidal effect, Test Example 3: A (100)
[3]; [6]
  Insecticidal effect, Test Example 1: A (100)

## CC(C)NC(=O)c1c(I)cccc1C(=O)Nc1ccc2c(c1Cl)OC(F)C(F)(F)O2 (racemic) [compound 1680]
[1]; [4]
  Insecticidal effect (Test Example 2), judged from mortality: A (100)
[2]; [5]
  Insecticidal effect (Test Example 3), judged from mortality: A (100)
[3]
  Insecticidal effect (Test Example 1), judged from mortality: A (100)

## Cc1cc(C(F)(F)C(F)(F)F)ccc1NC(=O)c1cccc(I)c1C(=O)N[C@H](C)CO [compound 1481]
[1]; [4]
  Insecticidal effect (Test Example 2), judged from mortality: A (100)
[2]; [5]
  Insecticidal effect (Test Example 3), judged from mortality: A (100)
[3]
  Insecticidal effect (Test Example 1), judged from mortality: A (100)

## CCCNC(=O)c1c(I)cccc1C(=O)Nc1ccc(C(F)(F)C(F)(F)F)cc1C [compound 1303]
[1]; [7]
  Insecticidal effect, Test Example 2: A (100)
[2]; [8]
  Insecticidal effect, Test Example 3: A (100)
[3]; [9]
  Insecticidal effect, Test Example 1: A (100)

## Cc1cc(C(F)(F)C(F)(F)F)ccc1NC(=O)c1c(I)cccc1C(=O)NCC(F)(F)F [compound 1041]
[1]; [7]
  Insecticidal effect, Test Example 2: A (100)
[2]; [8]
  Insecticidal effect, Test Example 3: A (100)
[3]; [9]
  Insecticidal effect, Test Example 1: A (100)

## CC(C)NC(=O)c1c(I)cccc1C(=O)Nc1ccc2c(c1)OC(F)(F)C(F)O2 (stereo not drawn) [compound 1161]
[1]; [7]
  Insecticidal effect, Test Example 2: D (79-50)
[2]; [8]
  Insecticidal effect, Test Example 3: A (100)
[3]; [9]
  Insecticidal effect, Test Example 1: A (100)

Reference: patent publication US6362369B1, “Phthalic acid diamide derivatives fluorine-containing aniline compounds as starting material, agricultural and horticultural insecticides, and a method for application of the insecticides” (Nihon Nohyaku Co., Ltd., priority 1997, dated 2002)
